Results taken from article PMC7509217 (Cellular and Molecular Gastroenterology and Hepatology, 2020).

Molecular target: rat ACC2 (acetyl-CoA carboxylase 2) (Rattus norvegicus, UniProt O70151)
Assay: citrate-activated ACC enzyme, […]bicarbonate incorporation into malonyl-CoA
Format: biochemical

rat ACC2 (acetyl-CoA carboxylase 2), sequence (O70151 1-2456): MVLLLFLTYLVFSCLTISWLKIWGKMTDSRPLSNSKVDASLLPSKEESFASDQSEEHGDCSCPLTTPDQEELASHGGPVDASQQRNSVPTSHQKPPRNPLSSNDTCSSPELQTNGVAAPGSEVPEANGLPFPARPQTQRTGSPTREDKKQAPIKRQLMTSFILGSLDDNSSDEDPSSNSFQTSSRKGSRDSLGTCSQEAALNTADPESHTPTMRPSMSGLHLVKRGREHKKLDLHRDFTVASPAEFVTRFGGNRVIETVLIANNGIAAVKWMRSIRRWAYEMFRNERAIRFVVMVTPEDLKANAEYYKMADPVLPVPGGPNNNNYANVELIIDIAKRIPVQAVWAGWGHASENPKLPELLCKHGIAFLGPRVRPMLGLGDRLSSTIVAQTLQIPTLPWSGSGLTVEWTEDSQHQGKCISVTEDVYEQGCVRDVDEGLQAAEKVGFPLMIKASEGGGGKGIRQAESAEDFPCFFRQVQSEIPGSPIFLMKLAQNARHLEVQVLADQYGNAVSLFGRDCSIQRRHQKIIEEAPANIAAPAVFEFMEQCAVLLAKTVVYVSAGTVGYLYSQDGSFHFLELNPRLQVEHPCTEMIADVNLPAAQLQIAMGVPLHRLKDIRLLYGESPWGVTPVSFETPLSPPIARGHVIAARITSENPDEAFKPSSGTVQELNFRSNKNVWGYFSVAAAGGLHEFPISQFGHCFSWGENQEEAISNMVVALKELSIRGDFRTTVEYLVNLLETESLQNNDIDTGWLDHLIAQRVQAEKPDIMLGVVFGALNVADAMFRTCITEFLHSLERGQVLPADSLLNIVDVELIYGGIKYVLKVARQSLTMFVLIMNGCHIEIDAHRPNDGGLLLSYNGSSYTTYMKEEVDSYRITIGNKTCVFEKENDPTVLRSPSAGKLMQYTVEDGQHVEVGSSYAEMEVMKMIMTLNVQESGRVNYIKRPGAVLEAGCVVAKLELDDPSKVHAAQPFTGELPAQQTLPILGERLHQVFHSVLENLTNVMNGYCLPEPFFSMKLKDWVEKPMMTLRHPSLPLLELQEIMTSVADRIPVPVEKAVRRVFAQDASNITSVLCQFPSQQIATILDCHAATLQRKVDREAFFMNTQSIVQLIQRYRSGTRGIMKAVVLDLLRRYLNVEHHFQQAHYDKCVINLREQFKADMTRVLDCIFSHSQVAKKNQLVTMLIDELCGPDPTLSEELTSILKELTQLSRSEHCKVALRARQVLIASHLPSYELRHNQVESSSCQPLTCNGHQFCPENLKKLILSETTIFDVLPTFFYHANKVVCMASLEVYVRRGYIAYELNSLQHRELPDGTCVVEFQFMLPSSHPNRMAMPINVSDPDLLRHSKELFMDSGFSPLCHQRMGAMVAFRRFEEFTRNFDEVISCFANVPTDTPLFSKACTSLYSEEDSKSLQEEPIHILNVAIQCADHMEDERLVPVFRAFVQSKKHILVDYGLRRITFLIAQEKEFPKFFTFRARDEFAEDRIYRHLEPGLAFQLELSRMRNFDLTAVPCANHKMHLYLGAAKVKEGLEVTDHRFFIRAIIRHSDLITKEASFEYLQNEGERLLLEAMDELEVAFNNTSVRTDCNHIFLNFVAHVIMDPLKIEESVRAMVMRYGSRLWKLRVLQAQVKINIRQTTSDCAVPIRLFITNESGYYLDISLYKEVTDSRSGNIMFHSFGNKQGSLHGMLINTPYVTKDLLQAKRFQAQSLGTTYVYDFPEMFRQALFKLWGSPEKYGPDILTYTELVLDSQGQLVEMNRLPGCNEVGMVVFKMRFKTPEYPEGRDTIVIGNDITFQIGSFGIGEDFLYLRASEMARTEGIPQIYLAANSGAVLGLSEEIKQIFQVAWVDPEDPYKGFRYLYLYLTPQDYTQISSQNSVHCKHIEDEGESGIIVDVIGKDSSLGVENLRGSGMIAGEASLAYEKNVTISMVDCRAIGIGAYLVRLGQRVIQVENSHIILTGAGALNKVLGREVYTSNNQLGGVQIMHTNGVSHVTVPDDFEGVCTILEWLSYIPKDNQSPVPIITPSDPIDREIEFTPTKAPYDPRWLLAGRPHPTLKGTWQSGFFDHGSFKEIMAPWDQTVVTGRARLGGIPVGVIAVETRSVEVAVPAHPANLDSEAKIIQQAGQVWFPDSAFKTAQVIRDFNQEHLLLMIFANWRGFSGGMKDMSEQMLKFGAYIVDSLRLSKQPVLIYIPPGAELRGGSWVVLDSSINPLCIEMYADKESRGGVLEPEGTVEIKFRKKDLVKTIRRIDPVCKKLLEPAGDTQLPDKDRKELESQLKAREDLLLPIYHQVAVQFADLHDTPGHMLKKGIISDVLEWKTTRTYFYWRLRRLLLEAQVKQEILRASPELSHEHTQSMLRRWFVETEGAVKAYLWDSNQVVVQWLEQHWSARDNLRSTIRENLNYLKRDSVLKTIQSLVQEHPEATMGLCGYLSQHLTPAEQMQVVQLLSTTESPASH

IC50: 8.2 ± 4.1 nM
SMILES: COc1cc(C(=O)N2CCC3(CC2)CC(=O)c2c(cnn2C(C)C)C3)cc(-c2ccc(C(=O)O)cc2)n1 [PF-05221304]
